# Results taken from ChEMBL document CHEMBL3044852, “Synthesis of N-hydroxycinnamoyl amino acid ester analogues and their free radical scavenging and antioxidative activities” (Med Chem Res, 2012).
# Assays:
# [1] = Antioxidant activity assessed as DPPH scavenging activity after 30 min by UV-vis spectroscopy; format: functional
# [2] = Antioxidant activity against AAPH-induced hemolysis in Homo sapiens (human) RBC assessed as inhibition time at 10 uM by spectrophotometry; format: functional, Erythrocyte
SMILES,IC50 [1] [µM],Time [2] [min]
CCOC(=O)CNC(=O)/C=C/c1ccc(O)c(O)c1,12.8,180
CCOC(=O)CNC(=O)/C=C/c1ccc(O)c(OC)c1,64.6,193
CCOC(=O)CNC(=O)/C=C/c1ccc(O)cc1,> 200,138
CCOC(=O)[C@H](Cc1ccccc1)NC(=O)/C=C/c1ccc(O)c(O)c1,1.45,–
CCOC(=O)[C@H](Cc1ccccc1)NC(=O)/C=C/c1ccc(O)c(OC)c1,52.4,198
CCOC(=O)[C@H](Cc1ccccc1)NC(=O)/C=C\c1ccc(O)cc1,> 200,–
COC(=O)[C@H](Cc1ccc(O)cc1)NC(=O)/C=C/c1ccc(O)cc1,> 200,–
CCOC(=O)[C@@H](NC(=O)/C=C/c1ccc(O)c(OC)c1)C(C)C,87.2,–
O=C1O[C@H]([C@@H](O)CO)C(O)=C1O [ASCORBIC ACID],29.6,–
O=C(O)/C=C/c1ccc(O)c(O)c1 [CAFFEIC ACID],18.2,–
O=C(O)/C=C/c1ccc(O)cc1 [COUMARIC ACID],> 200,–
CCOC(=O)/C=C/c1ccc(O)c(O)c1 [ETHYL CAFFEATE],49,–
CCOC(=O)/C=C/c1ccc(O)c(OC)c1 [ETHYL FERULATE],150,150
CCOC(=O)/C=C/c1ccc(O)cc1 [ETHYL P-COUMARATE],> 200,–
COc1cc(/C=C/C(=O)O)ccc1O [FERULATE],50.1,148
